{"source": "patent US10751322B2", "about": "“Indole-3-aldehyde for treating dysreactive immune disorders” (Universita′ degli Studi di Perugia, priority 2013, dated 2020)", "key": {"[1]": {"system": "genes Cyp1A1, Cyp1B1, IL-22, IL-10 and IDO1", "assay_type": "cell-based, mice", "procedure": "(§1) For these verifications, cultures were set up of mice stomachs and colons stimulated with 1 or 100 mM of IAld for 24 hours in vitro before determining the transcription of the above indicated genes by means of polymerase reaction. The histograms A-E show the activation (expressed in terms of the number of times the mRNA increases) of the genes Cyp1A1, Cyp1B1, IL-22, IL-10 and IDO1 respectively in the stomach (top diagram) and in the colon (bottom diagram) as a consequence of the stimulation. […] For comparison, also indicated are the values in the absence of stimulation with IAld. […] To assess the therapeutic effect in treating candidiasis, two experimental models were used of infection by C. albicans obtained by administration of the fungus intragastrically (by means of a tube) and intravaginally (by means of tip) respectively. To assess the therapeutic effect in treating colitis, the model used requires the administration of an irritant (dextran sodium sulphate, DDS), through the mouth. The assessment was made on mice C57BL/6 and on mice AhR^−/−, i.e., mice from which the AhR receptor had been artificially removed. The treatment with IAld lasted for 7 days."}, "colitis": {"system": "colitis", "experiment": "Colitis model induced by dextran sodium sulphate through the mouth", "assay_type": "in vivo, mice", "conditions": "18 mg/kg intragastrically daily, 7 days", "procedure": "as §1"}, "AhR": {"biological_target": "T1, AhR (Mus musculus, UniProt P30561)", "T1 construct": "endogenous in cells; host or cells: H1L1.1c2", "T1 sequence (P30561 10-805 limits assumed)": "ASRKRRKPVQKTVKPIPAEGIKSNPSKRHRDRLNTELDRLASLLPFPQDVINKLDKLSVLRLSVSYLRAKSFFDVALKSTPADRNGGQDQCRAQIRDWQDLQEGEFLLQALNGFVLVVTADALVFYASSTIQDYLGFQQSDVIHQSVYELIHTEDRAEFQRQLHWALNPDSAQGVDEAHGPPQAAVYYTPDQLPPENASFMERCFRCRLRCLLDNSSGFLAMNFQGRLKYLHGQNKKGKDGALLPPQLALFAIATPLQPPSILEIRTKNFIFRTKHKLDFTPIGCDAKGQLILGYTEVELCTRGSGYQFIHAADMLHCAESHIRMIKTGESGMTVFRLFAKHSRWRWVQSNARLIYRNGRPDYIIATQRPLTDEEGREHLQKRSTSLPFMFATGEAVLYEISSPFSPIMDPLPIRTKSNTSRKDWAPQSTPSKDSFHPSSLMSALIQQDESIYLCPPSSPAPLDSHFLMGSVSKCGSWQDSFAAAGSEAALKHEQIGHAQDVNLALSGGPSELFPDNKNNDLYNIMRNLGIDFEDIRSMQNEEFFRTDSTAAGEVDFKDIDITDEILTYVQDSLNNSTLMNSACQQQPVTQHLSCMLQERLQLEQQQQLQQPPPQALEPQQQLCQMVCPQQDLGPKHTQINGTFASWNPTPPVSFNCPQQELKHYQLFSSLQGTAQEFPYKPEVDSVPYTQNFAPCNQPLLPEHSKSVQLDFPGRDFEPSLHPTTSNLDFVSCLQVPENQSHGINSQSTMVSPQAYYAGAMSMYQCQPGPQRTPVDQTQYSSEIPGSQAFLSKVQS", "T1 sequence (P11499 whole entry partner)": "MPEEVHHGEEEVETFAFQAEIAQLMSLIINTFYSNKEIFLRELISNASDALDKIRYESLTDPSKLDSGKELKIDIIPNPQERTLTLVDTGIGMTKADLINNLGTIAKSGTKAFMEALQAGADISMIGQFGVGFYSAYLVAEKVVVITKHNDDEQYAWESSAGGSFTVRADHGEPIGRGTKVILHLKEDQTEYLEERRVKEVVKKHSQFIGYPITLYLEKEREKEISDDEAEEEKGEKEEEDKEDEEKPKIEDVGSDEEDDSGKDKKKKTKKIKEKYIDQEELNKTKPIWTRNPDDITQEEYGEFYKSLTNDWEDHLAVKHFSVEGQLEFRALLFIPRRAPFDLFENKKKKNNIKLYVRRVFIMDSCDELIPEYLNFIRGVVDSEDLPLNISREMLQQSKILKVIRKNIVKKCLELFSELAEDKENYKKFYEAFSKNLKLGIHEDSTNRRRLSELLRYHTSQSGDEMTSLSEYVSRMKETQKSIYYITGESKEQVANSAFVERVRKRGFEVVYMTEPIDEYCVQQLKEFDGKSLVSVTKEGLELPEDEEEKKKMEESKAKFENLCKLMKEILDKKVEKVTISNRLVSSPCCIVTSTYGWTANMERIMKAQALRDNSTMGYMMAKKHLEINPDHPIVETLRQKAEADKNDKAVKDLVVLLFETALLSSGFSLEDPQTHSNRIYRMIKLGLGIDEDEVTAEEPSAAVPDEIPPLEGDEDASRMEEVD", "T1 sequence (O08915 whole entry partner)": "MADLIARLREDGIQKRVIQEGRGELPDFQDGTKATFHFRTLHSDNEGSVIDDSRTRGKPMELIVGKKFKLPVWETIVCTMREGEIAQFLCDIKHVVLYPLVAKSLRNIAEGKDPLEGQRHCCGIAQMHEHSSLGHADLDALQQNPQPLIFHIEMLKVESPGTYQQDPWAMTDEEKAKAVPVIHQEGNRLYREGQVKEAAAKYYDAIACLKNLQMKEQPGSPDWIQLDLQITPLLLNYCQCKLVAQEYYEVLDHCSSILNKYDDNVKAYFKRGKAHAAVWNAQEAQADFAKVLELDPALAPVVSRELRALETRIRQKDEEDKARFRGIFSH", "experiment": "AhR-responsive luciferase reporter test of agonist activity", "assay_type": "cell-based", "conditions": "cell line H1L1.1c2, FIG. 1", "procedure": "For this test, an AhR-responsive cell line was stimulated (cell line H1L1.1c2 containing a luciferase of firefly sensitive to stably transfected AhR) with IAld, indole-3-acetaldehyde (IAAld), indole-3-acetic acid (IAA) and indole-3-lactic acid (ILA). In a way well known to the technician in the field, the agonist activity was determined by means of luciferase test, and in FIG. 1 the luciferase activity of the different ligands, representative of such agonist activity, has been indicated, on the ordinate, as a percentage of the response induced by 50 nM of formylindolo[3,2-b]carbazole (FICZ) according to the ligand dose, expressed in logarithmic scale on the abscissa."}, "Candida albicans [2]": {"system": "Candida albicans", "experiment": "Infection by C. albicans, fungus given intragastrically", "assay_type": "in vivo, mice", "conditions": "18 mg/kg intragastrically daily, 7 days", "procedure": "as §1"}, "Candida albicans [3]": {"system": "Candida albicans", "experiment": "Infection by C. albicans, fungus given intravaginally", "assay_type": "in vivo, mice", "conditions": "18 mg/kg intragastrically daily, 7 days", "procedure": "as §1"}}, "data": [{"smiles": "O=Cc1c[nH]c2ccccc12", "note": "[IAld, IH-indole-3-carbaldehyde]", "values": [{"measurement": "dose dependence of gene activation", "setting": "[1]", "value": "strongly dependent on the dose"}, {"measurement": "therapeutic effect in mice AhR−/− versus C57BL/6", "setting": "colitis; colitis, mice AhR−/−", "value": "only to be found in mice C57BL/6 and not in mice AhR^−/−"}, {"measurement": "percentage variation in body weight", "setting": "colitis; mice C57BL/6 with colitis, FIG. 3 graph E", "value": "prevention of the reduction in body weight"}, {"measurement": "degree of tissue inflammation (colon histopathology)", "setting": "colitis; mice C57BL/6 with colitis, FIG. 3 photographs F", "value": "improvement in the degree of tissue inflammation"}, {"measurement": "cells producing IL-22 (immunofluorescence)", "setting": "colitis; mice C57BL/6 with colitis, FIG. 3 photographs G", "value": "expansion of cells producing IL-22"}, {"measurement": "dose dependence of AhR-agonist activity", "setting": "AhR", "value": "closely dependent on the dose"}, {"measurement": "AhR-agonist activity (luciferase activity as a percentage of the response induced by 50 nM FICZ)", "setting": "AhR; compared with IAAld, ILA and IAA", "value": "substantially comparable to that of IAAld and is superior to that of ILA and IAA"}, {"measurement": "therapeutic effect in mice AhR−/− versus C57BL/6", "setting": "Candida albicans [2]; gastric candidiasis, mice AhR−/−", "value": "only to be found in mice C57BL/6 and not in mice AhR^−/−"}, {"measurement": "growth of Candida albicans (CFU) at stomach level", "setting": "Candida albicans [2]; mice C57BL/6, FIG. 3 diagram A", "value": "significant reduction in growth"}, {"measurement": "activation of IL-22 and IL-10 in the stomach", "setting": "Candida albicans [2]; mice C57BL/6, FIG. 3 histogram B", "value": "contemporaneous activation of IL-22 and IL-10"}, {"measurement": "growth of Candida albicans (CFU) at vagina level", "setting": "Candida albicans [3]; mice C57BL/6, FIG. 3 diagram C", "value": "significant reduction in growth"}, {"measurement": "activation of IL-22 and IL-10 in the vagina", "setting": "Candida albicans [3]; mice C57BL/6, FIG. 3 histogram B (so in the source)", "value": "contemporaneous activation of IL-22 and IL-10"}, {"measurement": "therapeutic effect in mice AhR−/− versus C57BL/6", "setting": "Candida albicans [3]; vaginal candidiasis, mice AhR−/−", "value": "only to be found in mice C57BL/6 and not in mice AhR^−/−"}]}]}
